{
  "source": "PubChem BioAssay (NCI)",
  "system": "MDA-MB-468 breast",
  "assay": "inhibition of tumour cell growth, NCI panel, 48 h",
  "note": "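48-hour exposure; five concentrations; linearly interpolated endpoints. GI50 = concentration required for 50% inhibition of growth. The concentration for full growth arrest is given as TGI.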 Where a SMILES comes first, the peptide text is derived from it. [ ]: non-standard residue; d: D form. The star is where a group is joined. ξ: configuration not given here. X6 = FC(F)(F)c1cc(NC(=S)*)cc(C(F)(F)F)c1; ξF = NC(Cc1ccccc1)C(=O)O",
  "data": [
    {"smiles": "COC(=O)[C@@H](NC(=O)CNC(=O)[C@H]1CCCN1C(=O)C(Cc1ccccc1)NC(=S)Nc1cc(C(F)(F)F)cc(C(F)(F)F)c1)C(C)C", "note": "(stereo partly specified) (X6-[ξF][dP]GV-OMe)", "values": [
      {"measurement": "GI50", "value": 1500, "unit": "nM"},
      {"measurement": "TGI", "value": 3230, "unit": "nM"}
    ]},
    {"smiles": "CO[C@H](C(=O)[C@@H](O)[C@@H](C)O)[C@@H]1Cc2cc3cc(O[C@H]4C[C@@H](O[C@H]5C[C@@H](O)[C@H](O)C(C)O5)[C@H](O)C(C)O4)c(C)c(O)c3c(O)c2C(=O)[C@H]1O[C@H]1C[C@@H](O[C@H]2C[C@@H](O[C@H]3C[C@](C)(O)C(=O)C(C)O3)[C@@H](O)C(C)O2)[C@H](O)C(C)O1", "note": "(stereo partly specified)", "values": [
      {"measurement": "GI50", "value": 68.4, "unit": "nM"},
      {"measurement": "TGI", "value": 515, "unit": "nM"}
    ]},
    {"smiles": "COc1ccc2c(C3=C(c4cn(C)c5ccccc45)C(=O)NC3=O)cn(C)c2c1", "values": [
      {"measurement": "GI50", "value": 112, "unit": "nM"},
      {"measurement": "TGI", "value": 10200, "unit": "nM"}
    ]},
    {"smiles": "COc1ccc2[nH]cc(-c3csc4nc(-c5ccccc5)cn34)c2c1", "values": [
      {"measurement": "GI50", "value": 362, "unit": "nM"},
      {"measurement": "TGI", "value": 2070, "unit": "nM"}
    ]},
    {"smiles": "CCC(CO)Nc1nc2ccc(Cl)cc2c2ccccc12", "note": "(stereo unspecified)", "values": [
      {"measurement": "GI50", "value": 5280, "unit": "nM"},
      {"measurement": "TGI", "value": 19500, "unit": "nM"}
    ]},
    {"smiles": "O=C(/C=C/C12c3ccccc3C(c3ccccc31)C1C(=O)NC(=O)C12)c1ccncc1", "note": "(stereo unspecified)", "values": [
      {"measurement": "GI50", "value": 1820, "unit": "nM"},
      {"measurement": "TGI", "value": 4020, "unit": "nM"}
    ]},
    {"smiles": "Clc1ccc2c(NCCCCNc3nc(N4CCCCC4)nc4ccccc34)ccnc2c1", "values": [
      {"measurement": "GI50", "value": 1640, "unit": "nM"},
      {"measurement": "TGI", "value": 3630, "unit": "nM"}
    ]},
    {"smiles": "CCCCCN(CCCCC)CCCNc1c2c(nc3ccc(Cl)cc13)CCCC2", "values": [
      {"measurement": "GI50", "value": 2440, "unit": "nM"},
      {"measurement": "TGI", "value": 6310, "unit": "nM"}
    ]},
    {"smiles": "COC1=CC(c2ccc[nH]2)=N/C1=C\\c1[nH]c(C)c(C(=O)OC(C)C)c1C", "values": [
      {"measurement": "GI50", "value": 111, "unit": "nM"},
      {"measurement": "TGI", "value": 1390, "unit": "nM"}
    ]},
    {"smiles": "C#Cc1ccc(-n2c(/C=C/c3ccc(C(F)(F)F)cc3)nc3ncccc3c2=O)cc1", "values": [
      {"measurement": "GI50", "value": 1510, "unit": "nM"},
      {"measurement": "TGI", "value": 3630, "unit": "nM"}
    ]},
    {"smiles": "NC(=O)c1sc(-n2cnc3ccccc32)cc1OCc1ccccc1Br", "values": [
      {"measurement": "GI50", "value": 340, "unit": "nM"},
      {"measurement": "TGI", "value": 2180, "unit": "nM"}
    ]},
    {"smiles": "CC/C=C\\CCC/C=C1/C(=O)C=C[C@@H]1C/C=C\\CCCC(=O)OC", "values": [
      {"measurement": "GI50", "value": 3200, "unit": "nM"},
      {"measurement": "TGI", "value": 10100, "unit": "nM"}
    ]},
    {"smiles": "Nc1nc(-c2cccc([N+](=O)[O-])c2)c(N=Nc2cccc([N+](=O)[O-])c2)s1", "values": [
      {"measurement": "GI50", "value": 30500, "unit": "nM"},
      {"measurement": "TGI", "value": "> 100000", "unit": "nM"}
    ]}
  ]
}
